According to patent publication US11440907B1 (Merck Patent GmbH, priority 2018, dated 2022):
pEC50, pIC50: −log10 of the molar value.

Key:
Assay type in all cases: cell-based
[1] = tested on: β-catenin-TCF-mediated reporter transcription activity in Colo 205 cells; experiment: Colo 205 reporter assay (TCF/LEF promoter-driven firefly luciferase); details: Homo sapiens; Colo 205 TCF/LEF luciferase reporter, 5 hours after compound addition, 384 well; read-out: Colo205 IC50
[2] = tested on: XBP1(u)-luciferase splicing reporter in HepG2 hepatoma cells; experiment: HepG2 XBP1 reporter assay (XBP1(u)-Luc); details: Homo sapiens, 6 hours after compound addition, Table 3, read-out: XBP1-luc HepG2 1 EC50
[3] = tested on: intracellular calcium flux in Colo-205 cells; experiment: Calcium flux assay (FLIPR Calcium 5 Assay Kit, FLIPR3); details: Homo sapiens, 0.6 h, calcium flux measured over 36 minutes, read-out: Colo 205 Calcium Flux assay 384w Boston Ca assay FLIPR3 Colo EC50
Method: Compounds described herein induced ER stress by causing intracellular calcium flux. Calcium flux was measured in Colo-205 cells using the FLIPR® Calcium 5 Assay Kit according to manufacturer's protocol (Molecular Devices, Cat. #R8186) on a FLIPR3 system (Molecular Devices). Calcium flux is measured over 36 minutes. The Colo-205 calcium flux assay data are summarized in Table 3: A<0.6 μM; 0.6 μM≤B<2.0 μM; 2.0 μM≤C<10.0 μM; D≥10.0 μM.

SMILES	pIC50 [1]	pEC50 [2]	pEC50 [3]
CC(C)c1cc(N2CCCCCC2c2ccccc2Cl)nc(N)n1 (racemic) [I-16, (+/−)-4-(2-(2-chlorophenyl)azepan-1-yl)-6-isopropylpyrimidin-2-amine]	6.00 to 6.52	5.30 to 5.70	5.70 to 6.22
CCc1cc(N2CCCCCC2c2ccccc2Cl)nc(N)n1 (racemic) [I-17, (+/−)-4-(2-(2-chlorophenyl)azepan-1-yl)-6-ethylpyrimidin-2-amine]	6.00 to 6.52	> 6.22	5.70 to 6.22
Cc1cc(N2CCCCCC2c2ccc(S(C)(=O)=O)cc2C)nc(N)n1 (racemic) [I-37, (+/−)-4-methyl-6-(2-(2-methyl-4-(methylsulfonyl)phenyl)azepan-1-yl)pyrimidin-2-amine]	6.00 to 6.52		> 6.22
COc1ccc(C2CCCCCN2c2cc(C)nc(N)n2)c(OC)c1 (racemic) [I-51, (+/−)-4-[2-(2,4-dimethoxyphenyl)azepan-1-yl]-6-methyl-pyrimidin-2-amine]	6.00 to 6.52	> 6.22	> 6.22
Cc1cc(N2CCCOCC2c2c(F)cccc2Cl)nc(N)n1 (racemic) [I-59, (+/−)-4-(3-(2-chloro-6-fluorophenyl)-1,4-oxazepan-4-yl)-6-methylpyrimidin-2-amine]	6.00 to 6.52		> 6.22
Cc1cc(N2CCCOCC2c2cc(F)ccc2Cl)nc(N)n1 (racemic) [I-70, (+/−)-4-[3-(2-chloro-5-fluoro-phenyl)-1,4-oxazepan-4-yl]-6-methyl-pyrimidin-2-amine]	6.00 to 6.52		> 6.22
Cc1cc(N2CCCOCC2c2cc(N)ccc2Cl)nc(N)n1 (racemic) [I-71, (+/−)-4-(3-(5-amino-2-chlorophenyl)-1,4-oxazepan-4-yl)-6-methylpyrimidin-2-amine]	> 6.52		> 6.22
Cc1cc(N2CCCOCC2c2cc(NS(C)(=O)=O)ccc2Cl)nc(N)n1 (racemic) [I-74, (+/−)-N-(3-(4-(2-amino-6-methylpyrimidin-4-yl)-1,4-oxazepan-3-yl)-4-chlorophenyl)methanesulfonamide]	> 6.52		> 6.22
CNC(=O)c1ccc(OC)c(C2COCCCN2c2cc(C)nc(N)n2)c1 (racemic) [I-82, (+/−)-3-(4-(2-amino-6-methylpyrimidin-4-yl)-1,4-oxazepan-3-yl)-4-methoxy-N-methylbenzamide]	6.00 to 6.52		5.70 to 6.22
CCNC(=O)c1ccc(C2COCCCN2c2cc(C)nc(N)n2)c(Cl)c1 (racemic) [I-171, (+/−)-4-[4-(2-amino-6-methyl-pyrimidin-4-yl)-1,4-oxazepan-3-yl]-3-chloro-N-ethyl-benzamide]	5.30 to 6.00	5.70 to 6.22	> 6.22
Cc1cc(N2CCCOCC2c2cc(C(=O)NC3CC3)ccc2Cl)nc(N)n1 (racemic) [I-172, (+/−)-3-(4-(2-amino-6-methylpyrimidin-4-yl)-1,4-oxazepan-3-yl)-4-chloro-N-cyclopropylbenzamide]	6.00 to 6.52	5.30 to 5.70	> 6.22
Cc1cc(N2CCCOC[C@@H]2c2ccc(F)cc2F)nc(N)n1 (single isomer, unassigned) [I-62]	6.00 to 6.52		> 6.22
Cc1cc(N2CCCOC[C@@H]2c2cc(F)ccc2Cl)nc(N)n1 (single isomer, unassigned) [I-79]	> 6.52		> 6.22
Cc1cc(N2CCCOC[C@@H]2c2cc(O)ccc2Cl)nc(N)n1 (single isomer, unassigned) [I-170]	> 6.52		> 6.22
Cc1cc(N2CCCCC[C@@H]2c2ccc(F)cc2C2CC2)nc(N)n1 [I-47, (R)-4-(2-(2-cyclopropyl-4-fluorophenyl)azepan-1-yl)-6-methylpyrimidin-2-amine]	6.00 to 6.52		5.70 to 6.22
CNC(=O)c1ccc(F)c(C2CCCCCN2c2cc(C)nc(N)n2)c1 (stereo not drawn) [I-55, 3-(1-(2-amino-6-methylpyrimidin-4-yl)azepan-2-yl)-4-fluoro-N-methylbenzamide]	6.00 to 6.52		> 6.22
COC(=O)c1ccc(OC)c(C2COCCCN2c2cc(C)nc(N)n2)c1 (stereo not drawn) [I-289]	6.00 to 6.52		> 6.22
